# Data published in US11267800B2, “Cyclohexyl acid triazole azines as LPA antagonists” (BRISTOL-MYERS SQUIBB COMPANY, priority 2017, dated 2022).
# Molecular target: T1, human LPA1 (Homo sapiens, UniProt Q92633)
# T1 construct: expressed in transfected cells; host or cells: Chinese hamster ovary (CHO) cells
# Assay: LPA1 functional antagonist assay (calcium flux)
# Format: cell-based
# Conditions: CHO cells overexpressing human LPA1; inhibition of calcium flux induced by 10 nM LPA; read-out: hLPA1 IC50
# Experimental: The effectiveness of compounds of the present invention as LPA1 inhibitors can be determined in an LPA1 functional antagonist assay as follows:
# Chinese hamster ovary cells overexpressing human LPA1 were plated overnight (15,000 cells/well) in poly-D-lysine coated 384-well microplates (Greiner bio-one, Cat #781946) in DMEM/F12 medium (Gibco, Cat #11039). Following overnight culture, cells were loaded with calcium indicator dye (AAT Bioquest Inc, Cat #34601) for 30 minutes at 37° C. The cells were then equilibrated to room temperature for 30 minutes before the assay. Test compounds solubilized in DMSO were transferred to 384 well non-binding surface plates (Corning, Cat #3575) using the Labcyte Echo acoustic dispense and diluted with assay buffer [1×HBSS with calcium/magnesium (Gibco Cat #14025-092), 20 mM HEPES (Gibco Cat #15630-080) and 0.1% fatty acid free BSA (Sigma Cat #A9205)] to a final concentration of 0.5% DMSO. Diluted compounds were added to the cells by FDSS6000 (Hamamatsu) at final concentrations ranging from 0.08 nM to 5 μM. and were then incubated for 20 min at room temperature at which time LPA (Avanti Polar Lipids Cat #857130C) was added at final concentrations of 10 nM to stimulate the cells. The compound IC50 value was defined as the concentration of test compound which inhibited 50% of the calcium flux induced by LPA alone. IC50 values were determined by fitting data to a 4-parameter logistic equation (GraphPad Prism, San Diego Calif.).
# T1 sequence (Q92633 whole entry): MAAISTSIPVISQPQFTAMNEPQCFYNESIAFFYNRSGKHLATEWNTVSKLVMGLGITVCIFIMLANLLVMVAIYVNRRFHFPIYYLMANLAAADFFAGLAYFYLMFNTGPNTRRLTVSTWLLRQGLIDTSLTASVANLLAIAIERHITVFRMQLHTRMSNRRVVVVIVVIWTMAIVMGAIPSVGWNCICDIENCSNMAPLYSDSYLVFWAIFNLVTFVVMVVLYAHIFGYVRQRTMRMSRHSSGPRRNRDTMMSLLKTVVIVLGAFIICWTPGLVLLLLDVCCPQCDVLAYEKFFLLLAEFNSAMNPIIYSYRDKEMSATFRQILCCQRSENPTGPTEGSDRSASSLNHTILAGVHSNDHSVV
row,SMILES,IC50 [nM]
1,CC(C)c1ccnc(NCc2c(-c3ccc(O[C@H]4CCC[C@H](C(=O)O)C4)cn3)nnn2C)n1 [Example 35],28
2,COc1ccccc1-c1ccnc(NCc2c(-c3ccc(O[C@H]4CCC[C@H](C(=O)O)C4)cn3)nnn2C)n1 [Example 36],59
3,Cc1cc(-c2ccccn2)nc(NCc2c(-c3ccc(O[C@H]4CCC[C@H](C(=O)O)C4)cn3)nnn2C)n1 [Example 37],166
4,Cn1nnc(-c2ccc(O[C@H]3CCC[C@H](C(=O)O)C3)cn2)c1CNc1nccc(C(C)(C)C)n1 [Example 38],36
5,Cc1nc(-c2nnn(C)c2CNc2nccc(-c3ccccc3)n2)ccc1O[C@H]1CCC[C@H](C(=O)O)C1 [Example 39],41
6,CCc1ccnc(NCc2c(-c3ccc(O[C@H]4CCC[C@H](C(=O)O)C4)c(C)n3)nnn2C)n1 [Example 40],46
7,Cc1nc(-c2nnn(C)c2CNc2ncc(F)c(NCC(F)(F)F)n2)ccc1O[C@H]1CCC[C@H](C(=O)O)C1 [Example 41],208
8,Cc1nc(-c2nnn(C)c2CNc2ncc(F)c(N3CCC3)n2)ccc1O[C@H]1CCC[C@H](C(=O)O)C1 [Example 42],218
9,CCCN(C)c1nc(NCc2c(-c3ccc(O[C@H]4CCC[C@H](C(=O)O)C4)c(C)n3)nnn2C)ncc1F [Example 44],44
10,Cc1nc(-c2nnn(C)c2CNc2ncc(F)c(NC3CC3)n2)ccc1O[C@H]1CCC[C@H](C(=O)O)C1 [Example 45],109
11,CCCN(C)c1ccnc(NCc2c(-c3ccc(O[C@H]4CCC[C@H](C(=O)O)C4)c(C)n3)nnn2C)n1 [Example 46],304
12,Cc1nc(-c2nnn(C)c2CNc2ncc(F)c(NCC3CC3)n2)ccc1O[C@H]1CCC[C@H](C(=O)O)C1 [Example 47],69
13,Cc1nc(-c2nnn(C)c2CNc2ncnc(NCCC3CC3)n2)ccc1O[C@H]1CCC[C@H](C(=O)O)C1 [Example 48],220
14,CCCCNc1nc(NCc2c(-c3ccc(O[C@H]4CCC[C@H](C(=O)O)C4)c(C)n3)nnn2C)ncc1F [Example 49],69
15,Cc1nc(-c2nnn(C)c2CNc2nccc(NCCC3CC3)n2)ccc1O[C@H]1CCC[C@H](C(=O)O)C1 [Example 50],243
16,CCCNc1ccnc(NCc2c(-c3ccc(O[C@H]4CCC[C@H](C(=O)O)C4)c(C)n3)nnn2C)n1 [Example 51],233
17,Cc1nc(-c2nnn(C)c2CNc2ncc(F)c(NCCC(C)C)n2)ccc1O[C@H]1CCC[C@H](C(=O)O)C1 [Example 52],63
18,Cc1nc(-c2nnn(C)c2CNc2ncc(F)c(NC3CCC3)n2)ccc1O[C@H]1CCC[C@H](C(=O)O)C1 [Example 53],58
19,Cc1nc(-c2nnn(C)c2CNc2ncc(F)c(Nc3ccccc3)n2)ccc1O[C@H]1CCC[C@H](C(=O)O)C1 [Example 54],134
20,Cc1nc(-c2nnn(C)c2CNc2ccnc(OCC(C)(C)F)n2)ccc1O[C@H]1CCC[C@H](C(=O)O)C1 [Example 55],189
21,Cc1nc(-c2nnn(C)c2CNc2nccc(OCC(C)(C)F)n2)ccc1O[C@H]1CCC[C@H](C(=O)O)C1 [Example 56],52

row,SMILES,IC50 [nM]
1,Cc1nc(-c2nnn(C)c2CNc2ncc(F)c(NCCC3CC3)n2)ccc1O[C@H]1CCC[C@H](C(=O)O)C1 [Example 57],21
2,CCNc1nc(NCc2c(-c3ccc(O[C@H]4CCC[C@H](C(=O)O)C4)c(C)n3)nnn2C)ncc1F [Example 58],82
3,Cc1nc(-c2nnn(C)c2CNc2ncc(F)c(NC(C)C)n2)ccc1O[C@H]1CCC[C@H](C(=O)O)C1 [Example 59],59
4,Cc1nc(-c2nnn(C)c2CNc2ncc(F)c(NCC(C)C)n2)ccc1O[C@H]1CCC[C@H](C(=O)O)C1 [Example 60],34
5,Cc1nc(-c2nnn(C)c2CNc2ccnc(OCC(C)(C)C)n2)ccc1O[C@H]1CCC[C@H](C(=O)O)C1 [Example 61],233
6,Cc1nc(-c2nnn(C)c2CNc2nccc(NCCc3ccc(F)cc3)n2)ccc1O[C@H]1CCC[C@H](C(=O)O)C1 [Example 62],63
7,Cc1nc(-c2nnn(C)c2CNc2nccc(NCCc3ccccc3)n2)ccc1O[C@H]1CCC[C@H](C(=O)O)C1 [Example 63],86
8,CCCNc1nc(NCc2c(-c3ccc(O[C@H]4CCC[C@H](C(=O)O)C4)c(C)n3)nnn2C)ncc1F [Example 64],46
9,Cc1nc(-c2nnn(C)c2CNc2nccc(OCC(C)(C)C)n2)ccc1O[C@H]1CCC[C@H](C(=O)O)C1 [Example 65],36
10,Cc1nc(-c2nnn(C)c2CNc2nccc(C3CCCC3)n2)ccc1O[C@H]1CCC[C@H](C(=O)O)C1 [Example 66],12
11,[2H]C([2H])([2H])C([2H])(Oc1ccnc(NCc2c(-c3ccc(O[C@H]4CCC[C@H](C(=O)O)C4)c(C)n3)nnn2C)n1)C([2H])([2H])[2H] [Example 67],41
12,CCOc1ccnc(NCc2c(-c3ccc(O[C@H]4CCC[C@H](C(=O)O)C4)c(C)n3)nnn2C)c1 [Example 68],132
13,Cc1nc(-c2nnn(C)c2CNc2nccc(OCC(C)F)n2)ccc1O[C@H]1CCC[C@H](C(=O)O)C1 (stereo partly shown) [Example 69],54
14,Cc1nc(-c2nnn(C)c2CNc2ncnc(N3CCCC3)n2)ccc1O[C@H]1CCC[C@H](C(=O)O)C1 [Example 70],319
15,[2H]C([2H])([2H])C([2H])([2H])Oc1ccnc(NCc2c(-c3ccc(O[C@H]4CCC[C@H](C(=O)O)C4)c(C)n3)nnn2C)n1 [Example 71],13
16,Cc1nc(-c2nnn(C)c2CNc2cc(OC(F)(F)F)ccn2)ccc1O[C@H]1CCC[C@H](C(=O)O)C1 [Example 72],57
17,Cc1nc(-c2nnn(C)c2CNc2ccnc(OCC(F)F)n2)ccc1O[C@H]1CCC[C@H](C(=O)O)C1 [Example 73],133
18,Cc1nc(-c2nnn(C)c2CNc2nccc(OCC3(C)COC3)n2)ccc1O[C@H]1CCC[C@H](C(=O)O)C1 [Example 74],130
19,Cc1nc(-c2nnn(C)c2CNc2cc(OC(F)(F)F)ccn2)ccc1O[C@@H]1CCC[C@@H](C(=O)O)C1 [Example 75],413
20,Cc1nc(-c2nnn(C)c2CNc2ncc(F)c(NCCc3ccc(Cl)cc3)n2)ccc1O[C@H]1CCC[C@H](C(=O)O)C1 [Example 76],44
21,Cc1nc(-c2nnn(C)c2CNc2ccnc(OCC(C)(F)F)n2)ccc1O[C@H]1CCC[C@H](C(=O)O)C1 [Example 77],65

row,SMILES,IC50 [nM]
1,Cc1nc(-c2nnn(C)c2CNc2nccc(OCC(C)(F)F)n2)ccc1O[C@H]1CCC[C@H](C(=O)O)C1 [Example 78],34
2,Cc1nc(-c2nnn(C)c2CNc2nccc(OCC(F)F)n2)ccc1O[C@H]1CCC[C@H](C(=O)O)C1 [Example 79],80
3,Cc1nc(-c2nnn(C)c2CNc2ncnc(Oc3ccccc3)n2)ccc1O[C@H]1CCC[C@H](C(=O)O)C1 [Example 80],135
4,Cc1nc(-c2nnn(C)c2CNc2nccc(-c3cnccn3)n2)ccc1O[C@H]1CCC[C@H](C(=O)O)C1 [Example 81],92
5,COCCOc1ccnc(NCc2c(-c3ccc(O[C@H]4CCC[C@H](C(=O)O)C4)c(C)n3)nnn2C)n1 [Example 82],122
6,Cc1nc(-c2nnn(C)c2CNc2nccc(OC3CCOC3)n2)ccc1O[C@H]1CCC[C@H](C(=O)O)C1 (stereo partly shown) [Example 83],172
7,Cc1nc(-c2nnn(C)c2CNc2nccc(Oc3ccc(Cl)nc3)n2)ccc1O[C@H]1CCC[C@H](C(=O)O)C1 [Example 84],383
8,Cc1nc(-c2nnn(C)c2CNc2nccc(OC3CCCC3)n2)ccc1O[C@H]1CCC[C@H](C(=O)O)C1 [Example 85],109
9,Cc1nc(-c2nnn(C)c2CNc2nccc(Oc3cccnc3)n2)ccc1O[C@H]1CCC[C@H](C(=O)O)C1 [Example 86],91
10,COCCCCOc1ccnc(NCc2c(-c3ccc(O[C@H]4CCC[C@H](C(=O)O)C4)c(C)n3)nnn2C)n1 [Example 87],77
11,CCSc1ccnc(NCc2c(-c3ccc(O[C@H]4CCC[C@H](C(=O)O)C4)c(C)n3)nnn2C)n1 [Example 88],16
12,COCCCOc1ccnc(NCc2c(-c3ccc(O[C@H]4CCC[C@H](C(=O)O)C4)c(C)n3)nnn2C)n1 [Example 89],77
13,Cc1nc(-c2nnn(C)c2CNc2nccc(OCC(F)(F)F)n2)ccc1O[C@H]1CCC[C@H](C(=O)O)C1 [Example 90],54
14,Cc1nc(-c2nnn(C)c2CNc2nccc(OCC(F)(F)C(F)F)n2)ccc1O[C@H]1CCC[C@H](C(=O)O)C1 [Example 91],32
15,Cc1nc(-c2nnn(C)c2CNc2ccnc(OCC(C)C)n2)ccc1O[C@H]1CCC[C@H](C(=O)O)C1 [Example 92],381
16,Cc1nc(-c2nnn(C)c2CNc2nccc(OCC(C)C)n2)ccc1O[C@H]1CCC[C@H](C(=O)O)C1 [Example 93],23
17,Cc1nc(-c2nnn(C)c2CNc2nccc(Oc3cccc(C#N)c3)n2)ccc1O[C@H]1CCC[C@H](C(=O)O)C1 [Example 94],241
18,Cc1nc(-c2nnn(C)c2CNc2nc(-c3cccs3)nc(-c3cccs3)n2)ccc1O[C@H]1CCC[C@H](C(=O)O)C1 [Example 95],1280
19,Cc1nc(-c2nnn(C)c2CNc2nccc(OC3CCC3)n2)ccc1O[C@H]1CCC[C@H](C(=O)O)C1 [Example 96],16
